We go through 1 compound from ChEMBL document CHEMBL5705899 (Biochem J, 2014).

The target in test [1] is Mitogen-activated protein kinase kinase kinase 9 (Homo sapiens) (UniProt P80192). Briefly: Inhibition of recombinant human N-terminal GST-tagged MLK1 (132 to 413 residues) expressed in baculovirus infected Sf21 cells assessed as remaining activity at 1 uM using MBP as substrate incubated for 30 mins in presence of [gamma-33P]ATP by filter binding method relative to control.

For test [2], the target named is Death-associated protein kinase 1 (Homo sapiens) (UniProt P53355). As to the kind of experiment: Inhibition of human DAPK1 at 1 uM using RBER-GSK3 as substrate in presence of 33P-ATP by ProQinase assay.
Chain of Death-associated protein kinase 1 (Homo sapiens) (P53355 whole entry, looked up): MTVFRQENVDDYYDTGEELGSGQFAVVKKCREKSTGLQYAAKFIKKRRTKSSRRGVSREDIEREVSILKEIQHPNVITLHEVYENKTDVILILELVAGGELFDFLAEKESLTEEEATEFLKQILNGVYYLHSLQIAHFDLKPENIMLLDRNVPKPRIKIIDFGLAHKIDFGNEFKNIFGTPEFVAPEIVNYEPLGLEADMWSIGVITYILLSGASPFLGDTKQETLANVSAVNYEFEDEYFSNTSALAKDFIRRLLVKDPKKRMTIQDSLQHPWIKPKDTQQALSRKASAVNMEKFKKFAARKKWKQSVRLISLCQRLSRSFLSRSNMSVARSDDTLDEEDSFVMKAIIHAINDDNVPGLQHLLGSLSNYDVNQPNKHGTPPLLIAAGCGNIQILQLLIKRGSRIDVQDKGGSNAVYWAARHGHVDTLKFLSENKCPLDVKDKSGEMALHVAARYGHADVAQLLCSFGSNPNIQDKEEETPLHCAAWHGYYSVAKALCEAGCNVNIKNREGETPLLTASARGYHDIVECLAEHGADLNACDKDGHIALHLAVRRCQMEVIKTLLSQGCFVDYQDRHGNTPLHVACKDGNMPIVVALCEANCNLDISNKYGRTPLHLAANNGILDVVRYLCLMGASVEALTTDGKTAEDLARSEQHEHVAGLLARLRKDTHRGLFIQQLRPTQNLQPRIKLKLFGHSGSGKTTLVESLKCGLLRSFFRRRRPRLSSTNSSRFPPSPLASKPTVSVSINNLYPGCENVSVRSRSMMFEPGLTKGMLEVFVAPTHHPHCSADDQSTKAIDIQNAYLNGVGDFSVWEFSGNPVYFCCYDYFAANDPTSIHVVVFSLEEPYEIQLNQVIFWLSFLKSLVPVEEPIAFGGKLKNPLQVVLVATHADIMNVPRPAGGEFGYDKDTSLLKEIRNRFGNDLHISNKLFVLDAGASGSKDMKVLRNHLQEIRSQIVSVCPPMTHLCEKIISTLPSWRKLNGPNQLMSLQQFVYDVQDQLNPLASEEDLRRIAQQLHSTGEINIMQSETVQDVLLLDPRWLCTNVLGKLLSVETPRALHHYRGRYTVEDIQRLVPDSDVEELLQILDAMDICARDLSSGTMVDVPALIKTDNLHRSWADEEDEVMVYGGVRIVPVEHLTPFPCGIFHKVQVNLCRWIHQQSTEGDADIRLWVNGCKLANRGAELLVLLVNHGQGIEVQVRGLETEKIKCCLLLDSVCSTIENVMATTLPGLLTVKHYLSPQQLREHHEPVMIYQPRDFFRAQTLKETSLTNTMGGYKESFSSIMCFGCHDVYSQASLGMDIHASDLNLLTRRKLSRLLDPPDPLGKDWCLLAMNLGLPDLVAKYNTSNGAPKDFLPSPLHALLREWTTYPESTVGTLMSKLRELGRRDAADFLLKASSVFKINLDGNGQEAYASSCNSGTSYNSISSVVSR
Test [3] addresses Mitogen-activated protein kinase kinase kinase 9 (Homo sapiens) (UniProt P80192). Briefly: Inhibition of human MAP3K9 at 1 uM using RBER-GSK3 as substrate in presence of 33P-ATP by ProQinase assay.
Test [4] has as its target Serine/threonine-protein kinase Nek3 (Homo sapiens) (UniProt P51956). As to the kind of experiment: Inhibition of human NEK3 at 1 uM using RBER-CHKtide as substrate in presence of 33P-ATP by ProQinase assay.
Test [5] addresses Tau-tubulin kinase 2 (Homo sapiens) (UniProt Q6IQ55). As to the kind of experiment: Inhibition of recombinant human TTBK2 (1 to 450 residues) expressed in baculovirus infected Sf21 cells assessed as remaining activity at 1 uM using RRKDLHDDEEDEAMSITA as substrate incubated for 30 mins in presence of [gamma-33P]ATP by filter binding method relative to control.
The target of test [6] is Mitogen-activated protein kinase 10 (Homo sapiens) (UniProt P53779). Briefly: Inhibition of human JNK3 at 1 uM using ATF2 as substrate in presence of 33P-ATP by ProQinase assay.
Test [7] has as its target Dual specificity testis-specific protein kinase 1 (Homo sapiens) (UniProt Q15569). As to the kind of experiment: Inhibition of recombinant human N-terminal GST-tagged TESK1 (1 to 315 residues) expressed in Escherichia coli assessed as remaining activity at 1 uM using Cofilin 2 as substrate incubated for 30 mins in presence of [gamma-33P]ATP by filter binding method relative to control.

For test [8], the target named is Ephrin type-B receptor 2 (Homo sapiens) (UniProt P29323). As to the kind of experiment: Inhibition of human EPHB2 at 1 uM using poly(Ala,Glu,Lys,Tyr) as substrate in presence of 33P-ATP by ProQinase assay.
In test [9] the target is TGF-beta receptor type-2 (Homo sapiens) (UniProt P37173). Briefly: Inhibition of human TGFBR2 at 1 uM using RB-S6P as substrate in presence of 33P-ATP by ProQinase assay.
Chain of TGF-beta receptor type-2 (Homo sapiens) (P37173 whole entry): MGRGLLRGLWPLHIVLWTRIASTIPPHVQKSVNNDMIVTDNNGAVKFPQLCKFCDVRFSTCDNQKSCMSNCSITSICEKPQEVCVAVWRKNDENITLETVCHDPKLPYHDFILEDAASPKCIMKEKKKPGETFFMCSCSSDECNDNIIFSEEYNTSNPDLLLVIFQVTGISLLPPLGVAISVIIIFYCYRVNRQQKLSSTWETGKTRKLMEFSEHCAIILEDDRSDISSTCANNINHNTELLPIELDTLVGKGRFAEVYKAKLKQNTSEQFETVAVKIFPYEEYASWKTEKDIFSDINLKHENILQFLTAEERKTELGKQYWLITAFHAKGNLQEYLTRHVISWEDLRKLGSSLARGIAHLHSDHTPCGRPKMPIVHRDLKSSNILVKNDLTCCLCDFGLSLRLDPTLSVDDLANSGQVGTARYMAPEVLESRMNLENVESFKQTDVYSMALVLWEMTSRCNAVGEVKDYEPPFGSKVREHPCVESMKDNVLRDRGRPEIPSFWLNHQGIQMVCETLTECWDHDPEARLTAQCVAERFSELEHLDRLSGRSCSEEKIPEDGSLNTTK
Test [10] deals with T1, 3-phosphoinositide-dependent protein kinase 1 (Homo sapiens) (UniProt O15530).
T1 sequence (whole entry): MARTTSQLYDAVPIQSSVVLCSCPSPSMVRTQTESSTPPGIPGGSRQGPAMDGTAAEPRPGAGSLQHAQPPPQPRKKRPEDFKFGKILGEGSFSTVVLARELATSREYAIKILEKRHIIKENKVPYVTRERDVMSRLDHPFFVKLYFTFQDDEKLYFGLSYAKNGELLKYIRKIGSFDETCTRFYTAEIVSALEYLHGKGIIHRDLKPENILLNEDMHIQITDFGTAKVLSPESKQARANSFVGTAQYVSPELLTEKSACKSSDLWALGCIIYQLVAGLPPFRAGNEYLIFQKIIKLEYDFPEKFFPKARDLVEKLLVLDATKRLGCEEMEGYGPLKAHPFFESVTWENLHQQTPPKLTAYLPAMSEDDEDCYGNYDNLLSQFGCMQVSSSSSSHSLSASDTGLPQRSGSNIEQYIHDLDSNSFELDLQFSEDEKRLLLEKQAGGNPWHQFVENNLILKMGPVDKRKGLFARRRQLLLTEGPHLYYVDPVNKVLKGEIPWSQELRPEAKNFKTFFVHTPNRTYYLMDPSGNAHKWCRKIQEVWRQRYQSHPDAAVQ
As to the kind of experiment: Inhibition of human PDK1 at 1 uM using bio-4xCHKT as substrate in presence of 33P-ATP by ProQinase assay.

The target of test [11] is MAP kinase-activated protein kinase 3 (Homo sapiens) (UniProt Q16644). Briefly: Inhibition of recombinant human N-terminal GST-tagged MAPKAPK3 (2 to 382 residues) expressed in Escherichia coli assessed as remaining activity at 1 uM using KKLNRTLSVA as substrate incubated for 30 mins in presence of [gamma-33P]ATP by filter binding method relative to control.
Test [12] concerns the target Serine/threonine-protein kinase DCLK2 (Homo sapiens) (UniProt Q8N568). As to the kind of experiment: Inhibition of human DCAMKL2 at 1 uM using RBER-CHKtide as substrate in presence of 33P-ATP by ProQinase assay.
Test [13] concerns the target Macrophage colony-stimulating factor 1 receptor (Homo sapiens) (UniProt P07333). As to the kind of experiment: Inhibition of human CSF1R at 1 uM using polyEY as substrate in presence of 33P-ATP by ProQinase assay.
The target in test [14] is Focal adhesion kinase 1 (Homo sapiens) (UniProt Q05397). As to the kind of experiment: Inhibition of human FAK (2 to 1052 residues) at 1 uM using polyEY as substrate in presence of 33P-ATP by ProQinase assay.
Test [15] addresses Tyrosine-protein kinase CSK (Homo sapiens) (UniProt P41240). As to the kind of experiment: Inhibition of human CSK at 1 uM using polyEY as substrate in presence of 33P-ATP by ProQinase assay.
For test [16], the target named is Serine/threonine-protein kinase Nek9 (Homo sapiens) (UniProt Q8TD19). Briefly: Inhibition of human NEK9 at 1 uM using RBER-GSK3 as substrate in presence of 33P-ATP by ProQinase assay.
Chain of Serine/threonine-protein kinase Nek9 (Homo sapiens) (Q8TD19 whole entry, the tested form may be a part): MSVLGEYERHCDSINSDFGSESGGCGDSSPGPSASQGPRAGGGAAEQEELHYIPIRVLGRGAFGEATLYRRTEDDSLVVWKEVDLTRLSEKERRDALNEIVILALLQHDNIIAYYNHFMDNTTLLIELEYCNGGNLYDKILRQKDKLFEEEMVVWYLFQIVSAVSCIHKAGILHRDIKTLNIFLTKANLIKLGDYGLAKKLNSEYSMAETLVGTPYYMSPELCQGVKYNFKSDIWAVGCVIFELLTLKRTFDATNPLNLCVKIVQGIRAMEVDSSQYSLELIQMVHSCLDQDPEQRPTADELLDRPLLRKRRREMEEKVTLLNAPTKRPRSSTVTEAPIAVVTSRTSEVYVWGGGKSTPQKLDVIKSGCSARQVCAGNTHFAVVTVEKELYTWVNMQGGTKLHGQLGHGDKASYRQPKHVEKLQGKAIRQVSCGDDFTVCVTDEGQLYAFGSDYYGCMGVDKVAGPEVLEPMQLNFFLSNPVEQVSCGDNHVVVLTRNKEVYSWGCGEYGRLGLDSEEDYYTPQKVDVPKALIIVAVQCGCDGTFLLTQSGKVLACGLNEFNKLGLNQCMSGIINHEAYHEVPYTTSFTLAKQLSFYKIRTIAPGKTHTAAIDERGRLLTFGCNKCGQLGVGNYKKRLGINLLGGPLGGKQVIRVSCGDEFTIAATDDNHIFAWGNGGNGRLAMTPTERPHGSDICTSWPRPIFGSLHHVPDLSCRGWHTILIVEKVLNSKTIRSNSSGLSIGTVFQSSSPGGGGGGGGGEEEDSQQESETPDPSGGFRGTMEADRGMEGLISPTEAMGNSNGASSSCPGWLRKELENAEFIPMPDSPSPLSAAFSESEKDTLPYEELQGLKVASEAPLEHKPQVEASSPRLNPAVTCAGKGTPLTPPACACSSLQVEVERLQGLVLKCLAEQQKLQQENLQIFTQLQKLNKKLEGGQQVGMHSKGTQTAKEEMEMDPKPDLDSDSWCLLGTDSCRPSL
The target of test [17] is High affinity nerve growth factor receptor (Homo sapiens) (UniProt P04629). As to the kind of experiment: Inhibition of recombinant human N-terminal His6-tagged TrkA (441 to 760 residues) expressed in baculovirus infected Sf21 cells assessed as remaining activity at 1 uM using Poly(Glu,Tyr) as substrate incubated for 30 mins in presence of [gamma-33P]ATP by filter binding method relative to control.
Chain of High affinity nerve growth factor receptor (Homo sapiens) (P04629 33-796 limits assumed): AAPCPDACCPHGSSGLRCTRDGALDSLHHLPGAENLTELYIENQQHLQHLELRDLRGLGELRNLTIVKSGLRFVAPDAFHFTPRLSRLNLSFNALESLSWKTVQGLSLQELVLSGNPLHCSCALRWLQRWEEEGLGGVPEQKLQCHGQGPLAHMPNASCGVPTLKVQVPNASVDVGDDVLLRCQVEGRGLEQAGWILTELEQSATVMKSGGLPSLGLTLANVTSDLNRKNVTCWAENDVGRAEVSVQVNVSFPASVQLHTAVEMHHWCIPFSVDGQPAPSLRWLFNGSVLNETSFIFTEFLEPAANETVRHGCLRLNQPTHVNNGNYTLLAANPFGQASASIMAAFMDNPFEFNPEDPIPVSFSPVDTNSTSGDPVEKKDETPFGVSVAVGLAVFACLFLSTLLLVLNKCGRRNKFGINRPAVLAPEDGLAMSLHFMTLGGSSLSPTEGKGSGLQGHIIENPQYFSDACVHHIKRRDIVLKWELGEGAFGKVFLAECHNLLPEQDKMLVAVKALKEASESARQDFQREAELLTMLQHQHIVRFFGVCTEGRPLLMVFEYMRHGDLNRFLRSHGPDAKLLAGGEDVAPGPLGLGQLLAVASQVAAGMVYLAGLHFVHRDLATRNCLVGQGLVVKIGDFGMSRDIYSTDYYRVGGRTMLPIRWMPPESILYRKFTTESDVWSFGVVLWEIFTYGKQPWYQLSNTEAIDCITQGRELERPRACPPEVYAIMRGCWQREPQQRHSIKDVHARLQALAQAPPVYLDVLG

Test [18] has as its target Myosin light chain kinase, smooth muscle (Homo sapiens) (UniProt Q15746). Briefly: Inhibition of recombinant human N-terminal GST-tagged SmMLCK (475 to 838 residues) expressed in Escherichia coli assessed as remaining activity at 1 uM using KKRPQRATSNVFA as substrate incubated for 30 mins in presence of [gamma-33P]ATP by filter binding method relative to control.
The target of test [19] is LIM domain kinase 2 (Homo sapiens) (UniProt P53671). As to the kind of experiment: Inhibition of human LIMK2 at 1 uM using CFL1 as substrate in presence of 33P-ATP by ProQinase assay.
The target in test [20] is Megakaryocyte-associated tyrosine-protein kinase (Homo sapiens) (UniProt P42679). Briefly: Inhibition of human MATK at 1 uM using polyEy as substrate in presence of 33P-ATP by ProQinase assay.

Activity calls are given as the source filed them. The calls are words filed in the database; no cut-off is given here.

Chain of Mitogen-activated protein kinase kinase kinase 9 (Homo sapiens) (P80192 whole entry, looked up, the tested form may be a part): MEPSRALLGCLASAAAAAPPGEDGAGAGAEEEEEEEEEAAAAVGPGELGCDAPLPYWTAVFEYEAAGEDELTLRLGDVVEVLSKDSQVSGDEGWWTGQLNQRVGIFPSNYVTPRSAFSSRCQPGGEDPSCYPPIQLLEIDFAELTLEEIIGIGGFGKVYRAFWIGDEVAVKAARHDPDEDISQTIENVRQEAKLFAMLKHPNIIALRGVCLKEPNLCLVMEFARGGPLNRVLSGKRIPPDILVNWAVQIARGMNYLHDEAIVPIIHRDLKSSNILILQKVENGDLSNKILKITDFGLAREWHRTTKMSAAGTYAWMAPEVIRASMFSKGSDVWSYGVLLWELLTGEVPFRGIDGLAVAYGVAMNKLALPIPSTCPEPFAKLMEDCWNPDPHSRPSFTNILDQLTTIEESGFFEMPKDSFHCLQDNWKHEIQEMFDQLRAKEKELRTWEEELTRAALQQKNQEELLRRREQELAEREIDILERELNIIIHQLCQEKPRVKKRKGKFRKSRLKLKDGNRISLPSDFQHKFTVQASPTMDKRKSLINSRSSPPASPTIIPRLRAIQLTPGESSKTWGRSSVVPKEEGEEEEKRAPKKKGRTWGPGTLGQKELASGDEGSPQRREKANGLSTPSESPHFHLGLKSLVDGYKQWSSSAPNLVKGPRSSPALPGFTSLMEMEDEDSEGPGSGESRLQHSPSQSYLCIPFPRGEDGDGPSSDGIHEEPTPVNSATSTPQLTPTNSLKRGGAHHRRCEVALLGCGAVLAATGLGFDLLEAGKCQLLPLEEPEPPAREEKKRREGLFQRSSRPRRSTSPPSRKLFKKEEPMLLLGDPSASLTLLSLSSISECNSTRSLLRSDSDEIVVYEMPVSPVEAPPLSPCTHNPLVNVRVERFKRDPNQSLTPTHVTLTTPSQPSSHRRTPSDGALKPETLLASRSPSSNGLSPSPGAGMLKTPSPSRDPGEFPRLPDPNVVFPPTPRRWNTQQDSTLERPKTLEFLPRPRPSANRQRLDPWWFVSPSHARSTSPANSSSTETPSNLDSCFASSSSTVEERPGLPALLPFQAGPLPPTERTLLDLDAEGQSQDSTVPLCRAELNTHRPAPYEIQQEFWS

As for `CC(C)(O)CNc1ncc(-c2ccnc(Nc3ccnc(Cl)c3)n2)c(CC2CC2)n1`, the Activity in test [1] was found to be 119%; in [5], 88%; in test [7], 95%; in test [11], 115%; in test [17] it was 70%; in [18], 97%. Besides, the inhibition entry in test [2], in test [3], in test [4], in test [6], in [8] and in test [9] was “inactive” in each case. Also, the inhibition entry in test [10], in test [12], in test [13], in test [14], in test [15] and in [16] was “inactive” throughout. For the same compound, the inhibition entry in [19] and in test [20] was “inactive” in each case.
